One experiment has as its system U2OS. In words: MTS cytotoxicity assay, 72 h, U2OS. Format: cell-based. As to conditions: Homo sapiens. The protocol:
(§1) Based on the preliminary results and tests of a larger library of known triterpenoids, a small set of 2-substituted lupane and 18α-oleanane derivatives was designed and synthesized. As the first step, the cytotoxic activity of the synthesized derivatives was assessed using an MTS assay following 72 h of treatment (Table 1). Selected cell lines A549 (lung adenocarcinoma) and DU-145 (prostate cancer) are both dependent on Hh signaling. In addition, K562 (chronic myelogenous leukemia) was included as a cell line sensitive to Hh inhibitors[32] and a type of hematological malignancy with active Hh signaling.[33] MRC-5 lung fibroblasts and BJ human skin fibroblasts cell lines were used to evaluate the toxicity against nontumor cells. Compounds were also tested using the standard panel of other cancer cell lines, as described in our earlier work (Table 1).[27]
(§2) The human prostate tumor-derived cell line DU145 was obtained from ATCC (American Type Culture Collection) and cultured in RPMI 1640 (Roswell Park Memorial Institute) medium supplemented with 10% (v/v) fetal bovine serum (FBS). Human prostate tumor-derived LNCaP cells were obtained from ATCC and cultured in RPMI 1640 medium supplemented with 10% FBS. The human nonsmall cell lung carcinoma (NSCLC)-derived cell line HOP-62 was obtained from the DSMZ (German Collection of Microorganisms and Cell Cultures) and cultured in RPMI 1640 medium supplemented with 10% FBS. The human nonsmall cell lung carcinoma-derived cell line NCI-H322 was obtained from ECACC (European Collection of Authenticated Cell Cultures) and cultured in RPMI 1640 medium supplemented with 10% FBS. The human nonsmall cell lung carcinoma-derived cell line NCI-H522 was obtained from ATCC and cultured in RPMI 1640 medium supplemented with 10% FBS. The human lung tumor-derived cell line A549 was obtained from ATCC and cultured in Dulbecco’s Modified Eagle’s Medium (DMEM) supplemented with 10% FBS. The human medulloblastoma-derived cell line DAOY was obtained from ATCC and cultured in Eagle’s Minimum Essential Medium (EMEM) supplemented with 10% FBS. The human glioblastoma-derived cell line T98G was obtained from ATCC and cultured in EMEM medium supplemented with 10% FBS, 1 mmol/L sodium pyruvate, and 1 mmol/L nonessential amino acid mixture. All the above-mentioned cell lines were cultured at 37 °C in an atmosphere of 5% CO2 with 95% humidity. The cytotoxicity MTS assays were performed using MTS (3-(4,5-dimethylthiazol-2-yl)-5-(3-carboxymethoxyphenyl)-2-(4-sulfophenyl)-2H-tetrazolium) tetrazolium salt. Briefly, cells were seeded in a 384-well transparent plate in a volume of 25 μL and a concentration of 15,000 cells/mL (DU145, LNCaP, HOP-62, A549, DAOY, T98G) or 30,000 cells/mL (NCI-H322, NCI-H522). The next day, cells were exposed to compounds in a concentration range of 50–0.0975 μmol/L (dilution factor 2) and cultured in the presence of the compounds for 72 h. After 72 h, 5 μL of MTS/phenazine methosulfate solution was pipetted into each well and incubation continued for 1–4 h. Finally, the absorbance at 490 nm was measured using an EnVision multifunctional modular reader (PerkinElmer). The IC50 value was determined using Dotmatics software.
Background: Formazan colour is commonly taken as a measure of viable cells.

For a further experiment, the system named is CEM-DNR. Briefly: MTS cytotoxicity assay, 72 h, CEM-DNR. It is filed as cell-based. As to conditions: Homo sapiens. The protocol: as §1, with “1).[27] […]” for “1).[27]”
Experiment [1] has as its system A549 (lung adenocarcinoma). In words: MTS cytotoxicity assay, 72 h, A549. Format: cell-based. Conditions: Homo sapiens, A549, 72 h. The protocol:
as §1, §2

For the next experiment, the system named is HCT116 p53–/–. In words: MTS cytotoxicity assay, 72 h, HCT116 p53–/–. It is filed as cell-based. Conditions: Homo sapiens, HCT-116, 72 h. The protocol:
as §1, §2

The subject of experiment [2] is K562 (chronic myelogenous leukemia). In words: MTS cytotoxicity assay, 72 h, K562. It is filed as cell-based. Conditions: Homo sapiens. On the procedure: as §1, §2
For experiment [3], the system named is BJ human skin fibroblasts. Briefly: MTS cytotoxicity assay, 72 h, BJ fibroblasts. Format: cell-based. Conditions: normal fibroblasts; for pIC50: Homo sapiens, Skin fibroblast. On the procedure: as §1, §2
The subject of another experiment is K562-TAX. In words: MTS cytotoxicity assay, 72 h, K562-TAX. It is filed as cell-based. The protocol:
as §1, §2

The subject of the next experiment is DU-145 (prostate cancer). In words: MTS cytotoxicity assay, 72 h, DU-145. It is filed as cell-based, human. The protocol: as §1, §2
For the next experiment, the system named is MRC-5 lung fibroblasts. Briefly: MTS cytotoxicity assay, 72 h, MRC-5 fibroblasts. As to conditions: normal fibroblasts; for pIC50: Homo sapiens, MRC5, 72 h. Format: cell-based, human. On the procedure:
as §1, §2

A further experiment has as its system HCT 116. Briefly: MTS cytotoxicity assay, 72 h, HCT 116. Format: cell-based. As to conditions: Homo sapiens, HCT-116, 72 h. On the procedure: as §1, §2
Another experiment has as its system CCRF-CEM. In words: MTS cytotoxicity assay, 72 h, CCRF-CEM. Format: cell-based. Conditions: for pIC50: Homo sapiens, CCRF-CEM, 72 h, MTS. On the procedure: as §1, §2
Setting [4] is: Homo sapiens, DU-145, 72 h, full Table S1.
[5] abbreviates: CCRF-CEM vs average of BJ and MRC-5, full Table S1.
Where [6] appears, read: Homo sapiens, DU-145, 72 h, Table 1.
Where [7] appears, read: IC50 of CCRF-CEM line vs average of both fibroblasts (BJ and MRC-5), Table 1.

Results on eight compounds are retold here after publication PMC11923649, “Novel C-2 Aromatic Heterocycle-Substituted Triterpenoids Inhibit Hedgehog Signaling in GLI1 Overexpression Cancer Cells” (ACS Omega, 2025).

The structures appear in SMILES notation. pIC50: −log10 of the molar value.

For `C=C(C)[C@@H]1CC[C@]2(C(=O)OCc3ccccc3)CC[C@]3(C)C(CCC4[C@@]5(C)C=C(c6ccoc6)C(=O)C(C)(C)C5CC[C@]43C)C12` (stereo partly shown) [Compound 10b, Benzyl 2-(3-Furanyl)-3-oxolupa-1,20(29)-dien-28-oate], the pIC50 (in the experiment with U2OS (full Table S1); in the experiment with CEM-DNR (full Table S1); in experiment [1] (full Table S1); with HCT116 p53–/– (full Table S1); in [2] (full Table S1); in experiment [3] (full Table S1)) was less than 4.30 throughout. Besides, the pIC50 in the experiment with K562-TAX (full Table S1), in the experiment with DU-145 (prostate cancer) (setting [4]), in the experiment on MRC-5 lung fibroblasts (full Table S1), in the experiment on HCT 116 (full Table S1) and in the experiment with CCRF-CEM (full Table S1) was less than 4.30 each time. For the same compound, in the experiment on CCRF-CEM (setting [5]), the “SI (selectivity index)” value is greater than 1.0.
Take `C=C(C)[C@@H]1CC[C@]2(C(=O)O)CC[C@]3(C)[C@H](CC[C@@H]4[C@@]5(C)CC[C@H](O)C(C)(C)[C@@H]5CC[C@]43C)[C@@H]12` [Betulinic acid 5, betulinic acid, reference compound]: the pIC50 (in general, the negative decadic logarithm of the IC50, by convention in mol/L) was 4.68 in the experiment with U2OS (Table 1); 4.85 in the experiment on CEM-DNR (Table 1); 5.03 in experiment [1] (Table 1); 4.80 with HCT116 p53–/– (Table 1); 5.37 in experiment [2] (Table 1); 4.62 in [3] (Table 1). Besides, the pIC50 was 4.85 with K562-TAX (Table 1); 4.85 in the experiment on K562-TAX (full Table S1); 5.02 in the experiment on DU-145 (prostate cancer) (setting [6]); 4.55 in the experiment on MRC-5 lung fibroblasts (Table 1); 4.80 in the experiment with HCT 116 (Table 1); 5.09 in the experiment on CCRF-CEM (Table 1). Besides, the “SI (selectivity index)” value in the experiment on CCRF-CEM (setting [7]) came to 3.2.
As for `CC1(C)C(=O)C(c2ccc3[nH]ccc3c2)=C[C@@]2(C)C1CC[C@]1(C)C2CCC2C3[C@H]4OC[C@@]3(CCC4(C)C)CC[C@]21C` (stereo partly drawn) [Compound 4m, 2-(Indol-5-yl)-19β,28-epoxyolean-1-en-3-one], the negative-log IC50 (pIC50) (in the experiment with U2OS (Table 1); with CEM-DNR (Table 1); in experiment [1] (Table 1); in the experiment on HCT116 p53–/– (Table 1); in experiment [2] (Table 1); in experiment [3] (Table 1)) was less than 4.30 in each case. For the same compound, the pIC50 is less than 4.30 in the experiment on K562-TAX (Table 1); 4.59 in the experiment with DU-145 (prostate cancer) (setting [6]); 4.59 in the experiment with DU-145 (prostate cancer) (setting [4]); less than 4.30 with MRC-5 lung fibroblasts (Table 1); less than 4.30 with HCT 116 (Table 1); 4.59 with CCRF-CEM (Table 1). This compound had a pIC50 in the experiment on CCRF-CEM (full Table S1) of 4.58. Further, the “SI (selectivity index)” value in the experiment with CCRF-CEM (setting [7]) is reported as greater than 1.9.
Take `C=C(C)[C@@H]1CC[C@]2(C(=O)OCc3ccccc3)CC[C@]3(C)C(CCC4[C@@]5(C)C=C(c6ccc7c(c6)OCCO7)C(=O)C(C)(C)C5CC[C@]43C)C12` (stereo partly shown) [Compound 10j, Benzyl 2-(1,4-Benzodioxan)-3-oxolupa-1,20(29)-dien-28-oate]: the pIC50 (with U2OS (full Table S1); with CEM-DNR (full Table S1); in experiment [1] (full Table S1); with HCT116 p53–/– (full Table S1); in [2] (full Table S1); in [3] (full Table S1)) was less than 4.30 throughout. The negative-log IC50 (pIC50) in the experiment on K562-TAX (full Table S1), in the experiment on DU-145 (prostate cancer) (setting [4]), in the experiment with MRC-5 lung fibroblasts (full Table S1), in the experiment with HCT 116 (full Table S1) and with CCRF-CEM (full Table S1) was less than 4.30 throughout. In addition, the “SI (selectivity index)” value in the experiment with CCRF-CEM (setting [5]) was greater than 1.0.
With `CC1(C)C(=O)C(c2cccnc2)=C[C@@]2(C)C1CC[C@]1(C)C2CCC2C3[C@H]4OC[C@@]3(CCC4(C)C)CC[C@]21C` (stereo partly drawn) [Compound 4g, 2-(Pyridin-3-yl)-19β,28-epoxyolean-1-en-3-one], the negative-log IC50 (pIC50) in the experiment on U2OS (Table 1) was less than 4.30; in the experiment with CEM-DNR (Table 1), 4.80; in the experiment with CEM-DNR (full Table S1) it was 4.81; in experiment [1] (Table 1), less than 4.30; in the experiment with HCT116 p53–/– (Table 1), less than 4.30; in [2] (Table 1) it was less than 4.30. Besides, the negative-log IC50 (pIC50) in experiment [3] (Table 1) was less than 4.30; in the experiment on K562-TAX (Table 1), 4.72; in the experiment on DU-145 (prostate cancer) (setting [6]), 4.37; in the experiment on DU-145 (prostate cancer) (setting [4]), 4.36; in the experiment on MRC-5 lung fibroblasts (Table 1), less than 4.30; with HCT 116 (Table 1), less than 4.30. For the same compound, the pIC50 with CCRF-CEM (Table 1) and with CCRF-CEM (full Table S1) was 4.60 throughout. The “SI (selectivity index)” value in the experiment with CCRF-CEM (setting [7]) was greater than 2.0.
As to `C=C(C)[C@@H]1CC[C@]2(C(=O)O)CC[C@]3(C)C(CCC4[C@@]5(C)C=C(c6cccnc6)C(=O)C(C)(C)C5CC[C@]43C)C12` (stereo partly shown) [Compound 11g, 2-(Pyridin-3-yl)-3-oxolupa-1,20(29)-dien-28-oic acid], the negative logarithm of the IC50 (pIC50) is 4.36 in the experiment on U2OS (Table 1); 4.35 in the experiment on U2OS (full Table S1); 4.68 with CEM-DNR (Table 1); 4.69 in the experiment on CEM-DNR (full Table S1); 4.46 in experiment [1] (Table 1); 4.46 in [1] (full Table S1). Moreover, the negative-log IC50 (pIC50) in the experiment with HCT116 p53–/– (Table 1) is 4.40; in the experiment on HCT116 p53–/– (full Table S1), 4.40; in [2] (Table 1) it was less than 4.30; in [3] (Table 1), less than 4.30; with K562-TAX (Table 1), 4.70; with DU-145 (prostate cancer) (setting [6]), 4.96. Further, the negative-log IC50 (pIC50) in the experiment on DU-145 (prostate cancer) (setting [4]) is 4.95; with MRC-5 lung fibroblasts (Table 1) it was less than 4.30; with HCT 116 (Table 1), 4.47; in the experiment on HCT 116 (full Table S1), 4.47; in the experiment with CCRF-CEM (Table 1), 4.74; in the experiment on CCRF-CEM (full Table S1), 4.74. Moreover, the “IC50 BJ” value in [3] (Table 1) was “below the detection limit”. In addition, in the experiment on MRC-5 lung fibroblasts (Table 1), the “IC50 MRC-5” value is reported as “below the detection limit”. In the experiment with CCRF-CEM (setting [7]), the “SI (selectivity index)” value is on record as greater than 2.8.
On to `CC1(C)C(=O)C(c2ccco2)=C[C@@]2(C)C1CC[C@]1(C)C2CCC2C3[C@H]4OC[C@@]3(CCC4(C)C)CC[C@]21C` (stereo partly drawn) [Compound 4a, 2-(Furan-2-yl)-19β,28-epoxyolean-1-en-3-one], for which the pIC50 (with U2OS (full Table S1); with CEM-DNR (full Table S1); in [1] (full Table S1); in the experiment with HCT116 p53–/– (full Table S1); in [2] (full Table S1); in experiment [3] (full Table S1)) was less than 4.30 each time. The pIC50 in the experiment on K562-TAX (full Table S1), with DU-145 (prostate cancer) (setting [4]), with MRC-5 lung fibroblasts (full Table S1), with HCT 116 (full Table S1) and in the experiment with CCRF-CEM (full Table S1) was less than 4.30 throughout. For the same compound, the “SI (selectivity index)” value in the experiment with CCRF-CEM (setting [5]) is reported as greater than 1.0.
In the case of `CN(C)c1ccccc1CN1CCCN(Cc2ccccc2N(C)C)C1c1ccncc1` [GANT-61, reference compound], in the experiment with DU-145 (prostate cancer) (Table 1), the negative logarithm of the IC50 (pIC50) was less than 4.30.
